MIC and IC50 data for six compounds are collected here from patent US8344017B2, “Anti-hepatitis C virus agents and anti-HIV agents” (Mitsubishi Corporation, priority 2003, dated 2013).

One assay deals with S. aureus M133 (MRSA). The experiment in a line: Antimicrobial activity, MIC. In kind it is cell-based. Here is the method:
(§1) Each fullerene derivative or the like was dissolved in DMSO, then added to the culture medium of bacteria. Vancomycin is an antimicrobial agent used for drug resistant bacteria (Methicillin resistant strains, MRSA) which has been in trouble now. […] Among the regioisomers of the compound 2, 2t-2, 2t-3 and 2t-4, differences in the effects are observed in some degree depending on bacteria, however, there are no significant differences, and they have an antimicrobial activity substantially equivalent to that of vancomycin, and are also effective for MRSA. Furthermore, worthy of special mention is the fact that these fullerene derivatives and the like show an effective antimicrobial activity against also vancomycin-resistant bacteria (VRE). […] At present, vancomycin-resistant bacteria began to emerge, therefore, the compound 2 is expected to exert an effect on these.

The next assay relates to E. hirae ATCC 8043. The experiment in a line: Antimicrobial activity, MIC. Format: cell-based. As for the experimental part: as §1
In another assay the test system is S. eidermidis ATCC 14990. The experiment in a line: Antimicrobial activity, MIC. In kind it is cell-based. As for the experimental part:
as §1

Another assay relates to S. aureus M126 (MRSA). The assay can be described thus: Antimicrobial activity, MIC. In kind it is cell-based. Here is the method:
as §1

The next assay deals with S. aureus 209P JC-1. The assay can be described thus: Antimicrobial activity, MIC. In kind it is cell-based. As for the experimental part: as §1
In assay [1] the target is T1, RNA polymerase of hepatitis C virus (Hepatitis C virus genotype 1a, UniProt P27958).
T1 construct: measuring RNA polymerase activity of hepatitis C virus
T1 sequence (P27958 2421-3011): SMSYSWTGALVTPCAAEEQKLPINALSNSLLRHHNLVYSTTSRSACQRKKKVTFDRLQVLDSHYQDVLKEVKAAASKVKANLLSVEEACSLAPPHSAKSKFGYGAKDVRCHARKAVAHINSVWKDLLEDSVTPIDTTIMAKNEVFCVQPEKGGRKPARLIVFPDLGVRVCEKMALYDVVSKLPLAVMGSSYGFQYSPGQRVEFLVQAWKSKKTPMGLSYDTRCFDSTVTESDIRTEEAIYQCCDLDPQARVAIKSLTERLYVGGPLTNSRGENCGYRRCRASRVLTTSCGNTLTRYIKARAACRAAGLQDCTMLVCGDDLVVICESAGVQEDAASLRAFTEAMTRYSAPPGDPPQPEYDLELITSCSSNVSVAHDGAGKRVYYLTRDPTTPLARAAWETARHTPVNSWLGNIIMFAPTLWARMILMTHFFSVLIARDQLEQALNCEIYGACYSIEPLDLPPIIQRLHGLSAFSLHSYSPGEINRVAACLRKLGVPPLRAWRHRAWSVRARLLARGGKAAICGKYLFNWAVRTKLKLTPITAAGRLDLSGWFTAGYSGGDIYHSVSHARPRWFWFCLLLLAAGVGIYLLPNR
The experiment in a line: RNA polymerase activity of hepatitis C virus, inhibitory activity. Format: biochemical. From the text:
(1) By using an experimental system for measuring RNA polymerase activity of hepatitis C virus (D. Dhanak et al., J. Biol. Chem., 277, 38322-[…] (2002)), its inhibitory activity was examined.
With regard to the foregoing compound 2, major regioisomers were separated and purified, however, with regard to others, bioactivities were investigated using mixtures.

Assay [2] deals with HIV reverse transcriptase (Human immunodeficiency virus type 1 group M subtype B, UniProt P03366). The experiment in a line: HIV reverse transcriptase inhibitory activity (32P-dTTP incorporation). The following applies: 1 hour at 37° C., pH 8.3. In kind it is biochemical. As for the experimental part: The experiment was performed as follows in 50 mM Tris-HCl buffer (pH 8.3); to 10 μL of a reaction solution which had been prepared so as to contain 30 mM NaCl, 10 mM MgCl, 2.5 mM DTT, 1.25 μg/mL poly(rA). oligo(dT) 12-18, 250 nM dTTP, ^32P-dTTP (800 μCi/mmol), 1 μl of a sample dissolved in DMSO, 1 μl of HIV reverse transcriptase (0.01 U/mL) were added, and the total volume was made up to 20 μl. After the solution was incubated for 1 hour at 37° C., 10 μl of the reaction solution was placed on a Whatman DE81 filter, which was washed three times with Na2HPO4, once with 70% ethanol and once with ethanol. The dried filter was placed in a vial, and the radioactivity was counted by the liquid scintillation measurement method, which was assigned to the HIV reverse transcriptase activity.

In assay [3] the test system is E. faecalis NCTC 12201 (VRE). The experiment in a line: Antimicrobial activity, MIC. In kind it is cell-based. Here is the method: as §1
Another assay concerns E. faecalis W-73. The experiment in a line: Antimicrobial activity, MIC. In kind it is cell-based. As for the experimental part:
as §1

For a further assay, the system named is E. faecium vanA (VRE). The assay can be described thus: Antimicrobial activity, MIC. In kind it is cell-based. As for the experimental part:
as §1

≈ marks a conversion by molar mass, not a printed value. Like-named read-outs stand apart in the source and are kept apart here.

`CN[C@H](CC(C)C)C(=O)N[C@H]1C(=O)N[C@@H](CC(N)=O)C(=O)N[C@H]2C(=O)N[C@H]3C(=O)N[C@H](C(=O)N[C@H](C(=O)O)c4cc(O)cc(O)c4-c4cc3ccc4O)[C@H](O)c3ccc(c(Cl)c3)Oc3cc2cc(c3O[C@@H]2O[C@H](CO)[C@@H](O)[C@H](O)[C@H]2O[C@H]2C[C@](C)(N)[C@H](O)[C@H](C)O2)Oc2ccc(cc2Cl)[C@H]1O` [VCM, vancomycin, reference compound]: the MIC (usually the least concentration at which growth counts as inhibited) in the assay with S. aureus M133 (MRSA) (Staphylococcus aureus, MRSA) was found to be 1560 µg/mL (≈ 1080 µM); against E. hirae ATCC 8043 (Enterococcus hirae, ATCC8043) it was 3120 µg/mL (≈ 2150 µM); in the assay on S. eidermidis ATCC 14990, 3120 µg/mL (≈ 2150 µM); against S. aureus M126 (MRSA) (Staphylococcus aureus, MRSA), 1560 µg/mL (≈ 1080 µM); in the assay with S. aureus 209P JC-1 (Staphylococcus aureus, 209P), 1560 µg/mL (≈ 1080 µM).
Regarding `O=C(O)CN1C(C(=O)O)C23c4c5c6c7c8c9c(c%10c%11c2c2c4c4c%12c5c5c6c6c8c8c%13c9c9c%10c%10c%11c%11c2c2c4c4c%12c%12c5c5c6c8c6c8c%13c9c9c%10c%10c%11c2c2c4c4c%12c5c6c5c8c9c%10c2c45)C73C1C(=O)O` (stereo not shown) [compound 8], the results for the IC50 in [1] and in assay [2] were 2 µM and 0.029 µM, respectively.
As to `C[N+]1(C)CC23c4c5c6c7c8c9c(c%10c%11c2c2c4c4c%12c5c5c6c6c8c8c%13c9c9c%10c%10c%11c%11c2c2c4c4c%12c%12c5c5c6c8c6c8c%13c9c9c%10c%10c%11c2c2c4c4c%12c5c6c5c8c9c%10c2c45)C73C1` (stereo not shown) [compound 9], in assay [2], the midpoint of inhibition, the IC50, lay at 1.6 µM. In other words, the single-digit micromolar range.
Regarding `O=C(O)CN1CC23c4c5c6c7c8c9c(c%10c%11c2c2c4c4c%12c5c5c6c6c8c8c%13c9c9c%10c%10c%11c%11c2c2c4c4c%12c%12c5c5c6c8c6c8c%13c9c9c%10c%10c%11c2c2c4c4c%12c5c6c5c8c9c%10c2c45)C73C1C(=O)O` (stereo not shown) [compound 10], the IC50 – broadly, the concentration that gives 50% inhibition – in assay [2] amounted to 1 µM.
In turn, `CN1CC23c4c5c6c7c8c9c(c%10c%11c2c2c4c4c%12c5c5c6c6c8c8c%13c9c9c%10c%10c%11c%11c2c2c4c4c%12c%12c5c5c6c8c6c8c%13c9c9c%10c%10c%11c2c2c4c4c%12c5c6c5c8c9c%10c2c45)C73C1c1ccc[n+](C)c1` (stereo not shown) [compound 12] came in with an IC50 in assay [2] of 5.2 µM.
Take “C60-bis(N,N-dimethyl-2-hexylpyyrolidinium iodido) [compound 4]”: the MIC with S. aureus M133 (MRSA) (S. aureus M133 (MRSA)) was 12500 µg/mL; in [3], 25000 µg/mL; in the assay with E. hirae ATCC 8043 (E. hirae ATCC 8043) it was 25000 µg/mL; with E. faecalis W-73 it was 50000 µg/mL; in the assay on S. eidermidis ATCC 14990 (S. eidermidis ATCC 14990), 12500 µg/mL; against E. faecium vanA (VRE), 12500 µg/mL. Besides, the MIC in the assay on S. aureus M126 (MRSA) (S. aureus M126 (MRSA)) stood at 12500 µg/mL; in the assay with S. aureus 209P JC-1 (S. aureus 209P JC-1), 6250 µg/mL. The compound further came in with an IC50 in assay [2] of 0.8 µM.
